Measurements from US20250179061A1 (SIRONAX LTD., priority 2022, published 2025).
Like-named read-outs stand apart in the source and are kept apart here.

System: HT-29 cells
Assay: HT-29 necroptosis cell viability assay (TNF-α/SMAC mimetic/zVAD-FMK, CellTiter-Glo)
Type: cell-based
Settings: Homo sapiens
Summary of the method: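 Necroptosis was triggered by TNF-α (10 ng/ml), SMAC mimetic (6 μM) and zVAD-FMK (10 μM) in serum-free medium during 20 h compound exposure (10 concentrations, threefold steps) of HT-29 cells. IC50 from duplicate dose-responses uses CellTiter-Glo ATP luminescence as viability read-out.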

[1] = HT-29, HT-29 necroptosis cell viability assay, class symbols for IC50, read-out: Activity
[2] = HT-29, HT-29 necroptosis cell viability, IC50 class symbols, read-out: Activity
[3] = HT-29 cells stimulated with TNF-α (10 ng/ml), SMAC mimetic (6 μM) and zVAD-FMK (10 μM), 20 hours, CellTiter-Glo ATP luminescence, geometric mean IC50 from 10 points, read-out: Activity

## O=c1n(Cc2c(F)cccc2F)cnn1-c1ccc(Oc2ccnc(N3CC4(COC4)C3)c2)cc1 [Example 527, 2-(4-((2-(2-oxa-6-azaspiro[3.3]heptan-6-yl)pyridin-4-yl)oxy)pheny)-4-(2,6-difluorobenzyl)-2,4-dihydro-3H-1,2,4-triazol-3-one]
[1]
  IC50: 100 to 1000 nM

## CC1(C#N)CN(c2nccc(Oc3ccc(-n4ncn(Cc5c(F)cccc5F)c4=O)cc3Cl)c2Cl)C1 [Example 256, 1-(3-chloro-4-(2-chloro-4-(4-(2,6-difluorobenzyl)-5-oxo-4,5-dihydro-1H-1,2,4-triazol-1-yl)phenoxy)pyridin-2-yl)-3-methylazetidine-3-carbonitrile]
[2]
  IC50: < 100 nM

## Cc1nc(C(=O)N2CCOCC2)sc1Oc1ccc(-n2ncn(Cc3c(F)cccc3F)c2=O)cc1F [Example 22, 4-(2,6-difluorobenzyl)-2-(3-fluoro-4-((4-methyl-2-(morpholin-4-carbonyl)thiazol-5-yl)oxy)phenyl)-2,4-dihydro-3H-1,2,4-triazol-3-one]
[3]
  IC50: < 100 nM

## C[C@H]1[C@@H](N(C)C)CN1c1cc(Oc2ccc(-n3ncn(Cc4c(F)cccc4F)c3=O)cc2F)c(Cl)cn1 [Example 426, 2-(4-((5-chloro-2-((2S,3S)-3-(dimethylamino)-2-methylazetidin-1-yl)pyridin-4-yl)oxy)-3-fluorophenyl)-4-(2,6-difluorobenzyl)-2,4-dihydro-3H-1,2,4-triazol-3-one]
[2]
  IC50: < 100 nM

## Cc1nc(C(=O)N2C[C@H](O)[C@@H]2C)sc1Oc1ccc(-n2ncn(Cc3c(F)cccc3F)c2=O)cc1F [Example 588, 4-(2,6-difluorobenzyl)-2-(3-fluoro-4-((2-((2S,3S)-3-hydroxy-2-methylazetidine-1-carbonyl)-4-methylthiazol-yl)oxy)phenyl)-2,4-dihydro-3H-1,2,4-triazol-3-one]
[1]
  IC50: < 100 nM

## COC(=O)c1nc(C)c(Oc2ccc(-n3ncn(Cc4ncccc4F)c3=O)cc2F)s1 [Example 32]
[3]
  IC50: 100 to 1000 nM

## Cc1c(Oc2ccc(-n3ncn(Cc4c(F)cccc4F)c3=O)cc2F)ccnc1NC12CC(C#N)(C1)C2 [Example 271, 3-((4-(4-(4-(2,6-difluorobenzyl)-5-oxo-4,5-dihydro-1H-1,2,4-triazol-1-yl)-2-fluorophenoxy)-3-methylpyridin-2-yl)amino)bicyclo[1.1.1]pentane-1-carbonitrile]
[2]
  IC50: < 100 nM

## COc1cc(Oc2ccc(-n3ncn(Cc4c(F)cccc4F)c3=O)cc2)cc(OC)n1 [Example 436, 4-(2,6-difluorobenzyl)-2-(4-((2,6-dimethoxypyridin-4-yl)oxy)phenyl)-2,4-dihydro-3H-1,2,4-triazol-3-one]
[2]
  IC50: 100 to 1000 nM

## COC1(C#N)CN(c2cc(Oc3ccc(-n4ncn(Cc5c(F)cccc5F)c4=O)cc3)c(F)cn2)C1 [Example 302, 1-(4-(4-(4-(2,6-difluorobenzyl)-5-oxo-4,5-dihydro-1H-1,2,4-triazol-1-yl)phenoxy)-5-fluoropyridin-2-yl)-3-methoxyazetidine-3-carbonitrile]
[2]
  IC50: < 100 nM

## Cc1c(CC(N)=O)nn(C)c1Oc1ccc(-n2ncn(Cc3c(F)cccc3F)c2=O)cc1F [Example 143, 2-(5-(4-(4-(2,6-difluorobenzyl)-5-oxo-4,5-dihydro-1H-1,2,4-triazol-1-yl)-2-fluorophenoxy)-1,4-dimethyl-1H-pyrazol-3-yl)acetamide]
[1]
  IC50: < 100 nM

## O=c1n(Cc2c(F)cccc2F)cnn1-c1ccc(Oc2ccnc(N3CC(OCC4CC4)C3)c2)cc1 [Example 483, 2-(4-((2-(3-(cyclopropylmethoxy)azetidin-1-yl)pyridin-4-yl)oxy)phenyl)-4-(2,6-difluorobenzyl)-2,4-dihydro-3H-1,2,4-triazol-3-one]
[1]
  IC50: 100 to 1000 nM

## Cc1nc(C(C)(C)O)sc1Oc1ccc(-n2ncn(Cc3ccccc3F)c2=O)cc1F [Example 469, 2-(3-fluoro-4-((2-(2-hydroxypropan-2-yl)-4-methylthiazol-5-yl)oxy)phenyl)-4-(2-fluorobenzyl)-2,4-dihydro-3H-1,2,4-triazol-3-one]
[2]
  IC50: < 100 nM

## NC(=O)c1nnc(Oc2ccc(-n3nc4n(c3=O)[C@H](c3ccccc3)CC4)cc2F)s1 (single isomer, unassigned) [Example 687]
[3]
  IC50: < 100 nM

## Cc1nc(C(N)=O)c(Oc2ccc(-n3ncn(Cc4c(F)cccc4F)c3=O)cc2F)s1 [Example 100, 5-(4-(4-(2,6-difluorobenzyl)-5-oxo-4,5-dihydro-1H-1,2,4-triazol-1-yl)-2-fluorophenoxy)-2-methylthiazole-4-carboxamide]
[3]
  IC50: 100 to 1000 nM

## Cc1oc(C(N)=O)nc1Oc1ccc(-n2nc3n(c2=O)[C@H](c2ccccc2)CC3)cc1F (single isomer, unassigned) [Example 696]
[3]
  IC50: < 100 nM

## Cc1nc(C(=O)NC2CCOCC2)sc1Oc1ccc(-n2ncn(Cc3ccccc3F)c2=O)cc1F [Example 642, 5-[2-fluoro-4-[4-[(2-fluorophenyl)methyl]-5-oxo-1,2,4-triazol-1-yl]phenoxy]-4-methyl-N-tetrahydropyran-4-yl-thiazole-2-carboxamide]
HT-29, HT-29 cells, necroptosis induced by TNF-α/SMAC mimetic/zVAD-FMK, CellTiter-Glo, read-out: Activity (IC50 class)
  IC50: < 100 nM

## C[C@H](O)C1CN(c2cc(Oc3ccc(-n4ncn(Cc5c(F)cccc5F)c4=O)cc3F)c(F)cn2)C1 [Example 556, (S)-4-(2,6-difluorobenzyl)-2-(3-fluoro-4-((5-fluoro-2-(3-(1-hydroxyethyl)azetidin-1-yl)pyridin-4-yl)oxy)phenyl)-2,4-dihydro-3H-1,2,4-triazol-3-one]
[1]
  IC50: < 100 nM

## Cc1nc(N)sc1Sc1ccc(-n2ncn(Cc3ccccc3)c2=O)cc1 [Example 458, 2-(4-((2-amino-4-methylthiazol-5-yl)thio)phenyl)-4-benzyl-2,4-dihydro-3H-1,2,4-triazol-3-one]
[2]
  IC50: < 100 nM

## Cc1nc(CC2CNC2)sc1Oc1ccc(-n2ncn(Cc3c(F)cccc3F)c2=O)cc1 [Example 312, 2-(4-((2-(azetidin-3-ylmethyl)-4-methylthiazol-5-yl)oxy)phenyl)-4-(2,6-difluorobenzyl)-2,4-dihydro-3H-1,2,4-triazol-3-one]
[2]
  IC50: < 100 nM

## CCOC(=O)C(F)(F)c1nc(C)c(Oc2ccc(-n3ncn(Cc4c(F)cccc4F)c3=O)cc2F)s1 [Example 118, ethyl 2-(5-(4-(4-(2,6-difluorobenzyl)-5-oxo-4,5-dihydro-1H-1,2,4-triazol-1-yl)-2-fluorophenoxy)-4-methylthiazol-2-yl)-2,2-difluoroacetate]
[1]
  IC50: 100 to 1000 nM

## CCOC1CN(c2nc(C)c(Oc3ccc(-n4ncn(Cc5c(F)cccc5F)c4=O)cc3)n2C)C1 [Example 183, 4-(2,6-difluorobenzyl)-2-(4-((2-(3-ethoxyazetidin-1-yl)-1,4-dimethyl-1H-imidazol-5-yl)oxy)phenyl)-2,4-dihydro-3H-1,2,4-triazol-3-one]
[1]
  IC50: < 100 nM

## Cc1nc(C(C)(C)O)sc1Oc1ccc(-n2nc3n(c2=O)C(c2ccccc2)CC3)cc1F (centres unmarked) [Example 463, 2-(3-fluoro-4-((2-(2-hydroxypropan-2-yl)-4-methylthiazol-5-yl)oxy)phenyl)-5-phenyl-2,5,6,7-tetrahydro-3H-pyrrolo[2,1-c][1,2,4]triazol-3-one]
[2]
  IC50: < 100 nM

## Cc1nc(N2CC(C)(NC(=O)OC(C)(C)C)C2)sc1C(C)(O)c1ccc(-n2ncn(Cc3c(F)cccc3F)c2=O)cc1 (centres unmarked) [Example 516, tert-butyl (1-(5-(1-(4-(4-(2,6-difluorobenzyl)-5-oxo-4,5-dihydro-1H-1,2,4-triazol-1-yl)phenyl)-1-hydroxyethyl)-4-methylthiazol-2-yl)-3-methylazetidin-3-yl)carbamate]
[1]
  IC50: < 100 nM
